The test relates to Hedgehog pathway. The experiment in a line: Hedgehog Pathway Cellular Differentiation Assay (alkaline phosphatase production in C3H10T1/2 cells with Shh ligand). The settings on record: Mus musculus, C3H 10T1/2, 3 μM compound, Shh ligand conditioned media, 72 h, alkaline phosphatase. It is filed as cell-based. How it is done:
Hedgehog Pathway Cellular Differentiation Assay The ability of compounds of the invention to inhibit the Hedgehog pathway can be determined by the following cell differentiation assay. C3H10T1/2 cells were plated into 384 well plates at a concentration of 5000 cells/well in DMEM/10% FBS. The following day the media was changed to 20% conditioned media (low serum media DMEM/2% FBS+Shh ligand). Compounds were solubilized in 100% DMSO to a concentration of 10 mM and then serially diluted three fold in 100% DMSO. The highest concentration in the cell plate was 30 μM and the lowest was 3 nM. The compounds were then added to the cells. Cell plates were incubated with the compound for 72 h and then assayed for alkaline phosphatase production using pNp as a substrate. Briefly, after 72 h of incubation, the media was aspirated from the cells and washed with 30 μl of PBS. PBS was aspirated off the cells and 15 μl of 1×RIPA cell lysis buffer is added on to the cells. The cell plates are then incubated at −80° C. for 30 minutes to insure proper cell lysis. The plates were then thawed back to RT. The substrate solution containing pNp at 1 mg/mL in diethanolamine buffer pH 9.8 was then added onto the lysed cells. The plates were incubated at 30° C. for color development and read at an absorbance of 405 nm. The percent inhibition and IC50 value was then calculated from the absorbance data using standard procedures.

As usually defined, the inhibition is the share of the control response that was lost under treatment. Molecule `Cc1ccc(-c2ncc[nH]2)cc1NC(=O)c1ccc(OCc2ccccn2)cn1` [Example 112, N-[5-(1H-imidazol-2-yl)-2-methylphenyl]-5-(pyridin-2-ylmethoxy)pyridine-2-carboxamide] returned an inhibition at 3 µM of 54.3%.

On to `CNCc1c(-c2ccc(C)c(NC(=O)c3ccc(OCc4ccccn4)cc3)c2)ncn1C` [Example 80, N-(2-methyl-5-{1-methyl-5-[(methylamino)methyl]-1H-imidazol-4-yl}phenyl)-4-(pyridin-2-ylmethoxy)benzamide], for which at 3 µM the inhibition was 57.1%. For `Cc1cc(C)c(-c2ncn(C)c2CO)cc1NC(=O)c1ccc(OCc2ccccn2)cc1` [Example 79, N-(5-(5-(hydroxymethyl)-1-methyl-1H-imidazol-4-yl)-2,4-dimethylphenyl)-4-(pyridin-2-ylmethoxy)benzamide] the value was 85.9%.

In turn, `Cc1ccc(-c2nccn2C)cc1NC(=O)c1ccc(OCc2cc(N3CCN(C)CC3)ccc2C#N)cc1` [Example 115, 4-(2-cyano-5-(4-methylpiperazin-1-yl)benzyloxy)-N-(2-methyl-5-(1-methyl-1H-imidazol-2-yl)phenyl)benzamide] had an inhibition at 3 µM of 82.8%. For `Cc1ccc(-c2ncc[nH]2)cc1NC(=O)c1ccc(OCc2ccc(N3CCOCC3)cn2)cc1` [Example 139, N-(5-(1H-imidazol-2-yl)-2-methylphenyl)-4-((5-morpholinopyridin-2-yl)methoxy)benzamide] the value was 84.1%; for `Cc1ccc(-c2nccs2)cc1NC(=O)c1ccc(OCc2ccccn2)cc1` [Example 16, N-(2-methyl-5-1,3-thiazol-2-yl-phenyl)-4-(pyridin-2-ylmethoxy)benzamide], 68.6%; for `Cc1ccc(-c2ccncc2)cc1NC(=O)c1ccc(OCc2ccccn2)cc1` [Example 11, N-(2-methyl-5-pyridin-4-yl-phenyl)-4-(pyridin-2-ylmethoxy)benzamide], 75%. For `Cc1ccc(-c2nc(-c3cccnc3)c[nH]2)cc1NC(=O)c1ccc(OCc2ccccn2)cc1` [Example 84, N-[2-methyl-5-(4-pyridin-3-yl-1H-imidazol-2-yl)phenyl]-4-(pyridin-2-ylmethoxy)benzamide] the value was 79.6%. For `CCOc1ccnc(COc2ccc(C(=O)Nc3cc(-c4nccn4C)ccc3C)cc2)c1` [Example 97, 4-[(4-ethoxypyridin-2-yl)methoxy]-N-[2-methyl-5-(1-methyl-1H-imidazol-2-yl)phenyl]benzamide] the value was 81.9%. For `Cc1ccc(-c2nccn2C)cc1NC(=O)c1ccc(OCc2ccc(F)cc2C#N)cc1` [Example 100, 4-[(2-cyano-4-fluorobenzyl)oxy]-N-[2-methyl-5-(1-methyl-1H-imidazol-2-yl)phenyl]benzamide], testing at 3 µM gave an inhibition of 82.7%. `COc1cccc(COc2ccc(C(=O)Nc3cc(-c4ncc[nH]4)ccc3C)cc2)n1` [Example 123, N-(5-(1H-imidazol-2-yl)-2-methylphenyl)-4-((6-methoxypyridin-2-yl)methoxy)benzamide] registered an inhibition at 3 µM of 84.7%. For `COc1cc(COc2ccc(C(=O)Nc3cc(-c4ncc(C)n4C)ccc3C)cc2)cc(OC)c1` [Example 48, 4-[(3,5-dimethoxyphenyl)methoxy]-N-[5-(1,5-dimethylimidazol-2-yl)-2-methyl-phenyl]benzamide] the value was 81.5%.

Regarding `Cc1ccc(-c2ncc[nH]2)cc1NC(=O)c1ccc(OCc2cccc(N3CCOCC3)n2)cc1` [Example 129, N-[5-(1H-imidazol-2-yl)-2-methylphenyl]-4-[(6-morpholin-4-ylpyridin-2-yl)methoxy]benzamide], 3 µM produced 82.8% inhibition. In the case of `Cc1ccc(-c2nc3ccccc3s2)cc1NC(=O)c1ccc(OCc2ccccn2)cc1` [Example 17, N-(5-benzothiazol-2-yl-2-methyl-phenyl)-4-(pyridin-2-ylmethoxy)benzamide] it was 53.5%. For `Cc1ccc(-c2nccn2C)cc1NC(=O)c1ccc(OCc2cc(Oc3ccccc3)ccn2)cc1` [Example 96, N-[2-methyl-5-(1-methyl-1H-imidazol-2-yl)phenyl]-4-[(4-phenoxypyridin-2-yl)methoxy]benzamide] the value was 79.8%. In the case of `Cc1ccc(-c2ncc[nH]2)cc1NC(=O)c1ccc(OCc2ncccc2N2CCN(C)CC2)cc1` [Example 138, N-(5-(1H-imidazol-2-yl)-2-methylphenyl)-4-((3-(4-methylpiperazin-1-yl)pyridin-2-yl)methoxy)benzamide] it was 42.2%.

Take `Cc1ccc(-c2ncc[nH]2)cc1NC(=O)c1ccc(OCc2ccccc2C(F)(F)F)cc1` [Example 64, N-[5-(1H-imidazol-2-yl)-2-methylphenyl]-4-{[2-(trifluoromethyl)benzyl]oxy}benzamide]: the inhibition at 3 µM came out at 79.6%.

In turn, `COc1cc(COc2ccc(C(=O)Nc3cc(-c4nc(C)c[nH]4)ccc3C)cc2)cc(OC)c1` [Example 43, 4-[(3,5-dimethoxyphenyl)methoxy]-N-[2-methyl-5-(4-methyl-1H-imidazol-2-yl)phenyl]benzamide] came in with an inhibition at 3 µM of 81.4%. Turning to `Cc1cc(Cl)c(-c2cn(C)c(C)n2)cc1NC(=O)c1ccc(OCc2ccccn2)cc1` [Example 77, N-[4-chloro-5-(1,2-dimethyl-1H-imidazol-4-yl)-2-methylphenyl]-4-(pyridin-2-ylmethoxy)benzamide], the inhibition at 3 µM came to 86.1%. In the case of `Cc1ccc(-c2ncc[nH]2)cc1NC(=O)c1ccc(OCc2cc(OCCN3CCCCC3)ccn2)cc1` [Example 95, N-[5-(1H-imidazol-2-yl)-2-methylphenyl]-4-{[4-(2-piperidin-1-ylethoxy)pyridin-2-yl]methoxy}benzamide] it was 47%; in that of `Cc1ccc(-c2cccnc2)cc1NC(=O)c1ccc(OCc2ccccn2)cc1` [Example 7, N-(2-methyl-5-pyridin-3-yl-phenyl)-4-(pyridin-2-ylmethoxy)benzamide], 70.8%. In the case of `Cc1nc(C)c(-c2ccc(C)c(NC(=O)c3ccc(OCc4ccccn4)cc3)c2)s1` [Example 32, N-[5-(2,4-dimethyl1,3-thiazol-5-yl)-2-methyl-phenyl]-4-(pyridin-2-ylmethoxy)benzamide] it was 54.1%. In turn, `CCOC(=O)c1sc(-c2ccc(C)c(NC(=O)c3ccc(OCc4ccccn4)cc3)c2)nc1C` [Example 19, ethyl 4-methyl-2-[4-methyl-3-[[4-(pyridin-2-ylmethoxy)benzoyl]amino]phenyl]1,3-thiazole-5-carboxylate] displayed an inhibition at 3 µM of 52%. In the case of `Cc1ccc(-c2cn(C)cn2)cc1NC(=O)c1ccc(OCc2ccccn2)cc1` [Example 21, N-[2-methyl-5-(1-methyl-1H-imidazol-4-yl)phenyl]-4-(pyridin-2-ylmethoxy)benzamide] it was 73.4%; in that of `Cc1ccc(-c2ncc(CN3CCOCC3)s2)cc1NC(=O)c1ccc(OCc2ccccn2)cc1` [Example 12, N-[2-methyl-5-[5-(morpholin-4-ylmethyl)1,3-thiazol-2-yl]phenyl]-4-(pyridin-2-ylmethoxy)benzamide], 74.2%. For `Cc1nc(-c2cc(NC(=O)c3ccc(OCc4ccccn4)cc3)c(C)cc2F)c[nH]1` [Example 103, N-[4-fluoro-2-methyl-5-(2-methyl-1H-imidazol-4-yl)phenyl]-4-(pyridin-2-ylmethoxy)benzamide] the value was 85.6%.

Values taken from patent publication US20100311748A1, “HETEROCYCLIC AMIDES USEFUL FOR THE TREATMENT OF CANCER AND PSORIASIS” (ASTRAZENECA AB, priority 2007, published 2010).
